The subject of experiment [1] is CD154 expression by CD3 mAb-activated CD4+ splenic T cells. Briefly: Activation-induced CD154 expression by CD4+ T cells, dual color flow cytometry. The class given is cell-based, mouse. The note with it: 7 hr, plate-bound CD3 mAb; for effect on activation-induced CD154 expression, in words: drug concentrations as b343 (10 μM lactacystin, 10 μM MG-273); for suppression (inhibition) of activation-induced CD154 expression: 125 ng/ml cyclosporin A, 20 ng/ml rapamycin, 100 μg/ml methylprednisolone, 1 μM mycophenolate mofetil, three experiments. The procedure:
Six-well plates (Costar) were pre-coated overnight with 1 μg/ml of […] anti-mouse CD3 mAb (2C11). After washing with media (RPMI supplemented with 10% fetal bovine serum, 50 U/ml penicillin, 50 μg/ml streptomycin, 2 mM glutamine and 50 μM 2-mercaptoethanol) one ml of media containing 2× final drug concentration was added to each well. After testing of a range of concentrations of each agent, the optimal final physiologic drug concentrations for the data to be reported were 125 ng/ml cyclosporin A, 20 ng/ml rapamycin. 100 μg/ml methylprednisolone, 1 μM mycophenolate mofetil, 10 μm lactacystin and 10 μM MG-273. Cells were obtained from mechanically disrupted spleens and, after collection by centrifugation and washing once with media, one ml aliquots containing two million viable splenocytes were added to each well. Cultures were incubated at 37° C. in 5% CO2 for 7 hr. and were then diluted two-fold with chilled media containing 0.1% sodium azide (FACS media). Cells were collected by centrifugation at 4° C., resuspended in FACS media containing 1 μg Fc Block (PharMingen) and incubated on ice for 15 min. Samples were then split and either a mixture of 1 μg each of FITC-conjugated CD4-specific mAb and PE-conjugated control hamster IgG mAb or FITC-conjugated CD4-specific mAb and PE-conjugated CD154-specific mAb were added. After a 30 min incubation on ice, cells were washed twice and analyzed on a Becton Dickinson FACScan using Cell Quest software. Viable CD4+ lymphocytes were gated using a combination of forward/side scatter and CD4 staining.
(In general: Flow cytometry measures light scatter and fluorescence of single cells or particles in a stream.)

For experiment [2], the system named is BALB/c cardiac allograft in B6/129 wild-type mice. Briefly: Heterotopic cardiac allograft survival, BALB/c donors into B6/129 wild-type recipients. The format is in vivo, mouse. The note with it: with CD154 mAb/DST, rapamycin 0.2 mg/kg/d i.p., cyclosporin A 10 mg/kg/d i.p., methylprednisolone 1 mg/kg i.p., PS-519 1 mg/kg/d i.p., p<0.001. As for the experimental part:
Heterotopic cardiac allografting was performed with anastomoses to the abdominal aorta and vena cava (Hancock et al., 1998, Nature Medicine 4:1392-1396), using BALB/c donors and B6/129 wild-type or […] mice as recipients. Recipients were treated with hamster IgG or hamster anti-mouse (CD40L mAb; 250 μg, administered intravenously) plus DST (5×10^6 splenic mononuclear cells) at the time of transplantation (Hancock et al., 1998, Nature Medicine 4:1392-1396).
Heterotopic cardiac allografting was performed with anastomoses to the abdominal aorta and vena cava (Hancock, W. W. et al., 1998, Nature Medicine 4:1392-1396), using BALB/c donors and B6/129 wild-type or NF-κB/p50 KO mice as recipients (n=6/group). Recipients were treated with hamster IgG or hamster anti-mouse CD154 mAb (250 μg, i.v.) plus DST (“donor specific transfusion”; 5×10^6 splenic mononuclear cells) at the time of transplantation (Hancock, W. W. et al., 1998, Nature Medicine 4:1392-1396). […] Graft survival was monitored by daily palpation, and rejection was confirmed by laparotomy and histologic evaluation.
Heterotopic cardiac allografting was performed with anastomoses to the abdominal aorta and vena cava, using BALB/c donors and B6/129 wild-type or Stat-6 KO mice as recipients (n=6/group). […] Graft survival was monitored by daily palpation and rejection was confirmed by laparotomy and histologic evaluation.

From patent US6534277B1, “Method for identifying a compound to be tested for an ability to reduce immune rejection by determining Stat4 and Stat6 proteins” (Millennium Pharmaceuticals, Inc., priority 2000, dated 2003) come the findings set out here.

“Also recorded” adds a separate entry of the source.

Turning to `CC(C)C[C@H](NC(=O)[C@H](Cc1cccc2ccccc12)NC(=O)N1CCOCC1)B(O)O` [MG-273], the “effect on activation-induced CD154 expression, in words” value in experiment [1] is “significantly decreased; also recorded: significantly blocked”.

Consider `CO[C@H]1C[C@@H]2CC[C@@H](C)[C@@](O)(O2)C(=O)C(=O)N2CCCC[C@H]2C(=O)O[C@H]([C@H](C)C[C@@H]2CC[C@@H](O)[C@H](OC)C2)CC(=O)[C@H](C)/C=C(\C)[C@@H](O)[C@@H](OC)C(=O)[C@H](C)C[C@H](C)/C=C/C=C/C=C/1C` [rapamycin], for which the “suppression (inhibition) of activation-induced CD154 expression” value (shortened to “suppression (inhibition)”) in experiment [1] was under 20%.

On to `C[C@H]1C[C@@H]2[C@H]([C@@H](O)C[C@@]3(C)[C@H]2CC[C@]3(O)C(=O)CO)[C@@]2(C)C=CC(=O)C=C12` [methylprednisolone, 6α-methylprednisolone], for which, in experiment [1], the “suppression (inhibition)” value is over 90%.

Turning to `COc1c(C)c2c(c(O)c1C/C=C(\C)CCC(=O)OCCN1CCOCC1)C(=O)OC2` [mycophenolate mofetil], in experiment [1], the “suppression (inhibition)” value is on record as under 10% and the “effect on activation-induced CD154 expression, in words” value was “complete lack of effect”.

In the case of `CCC[C@H]1C(=O)N[C@@]2([C@@H](O)C(C)C)C(=O)O[C@@H]12` [PS-519], the “effect of concomitant agent on the effects (efficacy) of CD154 mAb therapy on allograft survival” value in experiment [2] (listed as lactacystin-derived (LC) proteasome inhibitor) is “significantly impaired”; in experiment [2] (listed as proteasome inhibitor) it was “blocked”.
